Assay results taken from PubChem BioAssay (NCI).
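Compound exposure: 48 hours, 5 concentrations, 96-well plates. GI50: concentration for 50% inhibition of growth. TGI denotes the concentration required for complete inhibition of growth.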

How the values were obtained:
Test in all cases: NCI anticancer screen, dose series, 48 h
OVCAR-3 ovarian = test system: OVCAR-3 ovarian
SK-MEL-2 melanoma = test system: SK-MEL-2 melanoma
MOLT-4 leukemia = test system: MOLT-4 leukemia
SF-295 CNS = test system: SF-295 CNS
SNB-19 CNS = test system: SNB-19 CNS
SF-268 CNS = test system: SF-268 CNS
UO-31 renal = test system: UO-31 renal
M14 melanoma = test system: M14 melanoma
U251 CNS = test system: U251 CNS
K-562 leukemia = test system: K-562 leukemia

Row | Compound | GI50 (OVCAR-3 ovarian) [µM] | TGI (OVCAR-3 ovarian) [µM] | GI50 (SK-MEL-2 melanoma) [µM] | TGI (SK-MEL-2 melanoma) [µM] | GI50 (MOLT-4 leukemia) [µM] | TGI (MOLT-4 leukemia) [µM] | GI50 (SF-295 CNS) [µM] | TGI (SF-295 CNS) [µM] | GI50 (SNB-19 CNS) [µM] | TGI (SNB-19 CNS) [µM] | GI50 (SF-268 CNS) [µM] | TGI (SF-268 CNS) [µM] | GI50 (UO-31 renal) [µM] | TGI (UO-31 renal) [µM] | GI50 (M14 melanoma) [µM] | TGI (M14 melanoma) [µM] | GI50 (U251 CNS) [µM] | TGI (U251 CNS) [µM] | GI50 (K-562 leukemia) [µM] | TGI (K-562 leukemia) [µM]
1 | COC(=O)CCC1=C(C)c2cc3[n-]c(cc4nc(cc5[n-]c(cc1n2)c(CCC(=O)OC)c5C)C=C4C)cc3C.[Cd+2] | 1.73 | 3.81 | 5.37 | 19.1 | 5.08 | > 63.6 | 17.5 | 77 | 25.6 | > 100 | 3.14 | 14.9 | 21.7 | 65.7 | 5.54 | 22.8 | 2.82 | 9.98 | 3.32 | > 30.8
2 | O=c1[nH]c(-c2ccc(C(F)(F)F)cc2)nc2c1CSCC2 | 27 | > 100 | 35.6 | > 93.2 | > 100 | > 100 | 52.7 | > 100 | 47.3 | > 100 | 53.2 | > 100 | 5.43 | > 67.4 | 68.7 | > 100 | 17.9 | > 89.6 | > 100 | > 100
3 | COc1cc2c(cc1C)n(O)c(C)c(C(=O)C/C(=N/NC(=O)C[N+](C)(C)C)C(=O)Nc1cccc(Cl)c1C)[n+]2=O | – | > 100 | – | > 100 | – | > 100 | – | > 100 | – | > 100 | – | > 100 | – | > 100 | – | > 100 | – | > 100 | – | > 100
4 | COc1ccc(/C=C2\N=C3SC=C(N)N3C2=O)cc1 | 1.14 | 2.98 | 1.02 | 2.75 | 0.28 | 2.91 | 0.642 | 14.2 | 3.32 | 17 | 1.82 | 7.29 | 0.266 | 1.61 | 1.21 | 4.73 | 1.32 | 5.49 | 1.56 | 17.3
5 | Cn1cnc([N+](=O)[O-])c1Sc1ncnc2c1ncn2C1OC(CO)C(O)C1O (stereo not given) | 3.93 | > 100 | 8.9 | > 100 | 8.32 | 64.5 | 2.95 | > 100 | > 100 | > 100 | 18.4 | > 100 | 7.1 | > 100 | 2.29 | > 100 | 8.79 | > 100 | 3.35 | > 100
6 | O=C(NNS(=O)(=O)c1cc(C(F)(F)F)cc(C(F)(F)F)c1)c1cnn(-c2ccc(Cl)cc2)c1C(F)(F)F | 15.3 | 33.4 | 18.5 | 34.7 | 19.9 | 52.3 | 14.9 | 44 | 20.2 | 49.7 | 21.6 | 52.6 | 15.8 | 31.7 | 16.3 | 30.9 | 17.3 | 35.3 | 23.1 | 65.7
7 | COc1ccc(/C=C2\COc3ccc(-c4ccccc4)cc3C2=O)cc1O | 1.76 | 4.97 | 2.17 | 6.1 | 2.34 | 83.6 | 4.4 | 21.7 | 3.38 | 17.2 | 3.18 | 12.7 | 4.16 | 16.1 | 3.41 | 14.6 | 1.83 | 4.27 | 3.6 | > 100
8 | CCC1(CN(C)C)CC/C(=C\c2ccc3c(c2)OCO3)C1=O (stereo not given) | – | > 100 | – | > 100 | – | > 100 | – | > 100 | – | > 100 | – | > 100 | – | > 100 | – | > 100 | – | > 100 | – | > 100
9 | CCS/C(Nc1ccccc1)=C(\C#N)C(=O)Nc1ccc(OC)cc1 | 2.6 | 8.59 | 3.01 | > 100 | 2.61 | > 100 | 3.06 | > 100 | 3.55 | > 100 | 6.8 | > 100 | 5.49 | > 100 | 2.27 | 87.4 | 4.42 | > 100 | 0.436 | > 100
10 | C[Si](C)(C)/C=C/CN1C(=O)CCC1O (stereo not given) | – | > 100 | – | > 100 | – | > 100 | – | > 100 | – | > 100 | – | > 100 | – | > 100 | – | > 100 | – | > 100 | – | > 100
11 | O=C1/C(=C/c2cccs2)CCC/C1=C\c1cccs1 | 23.8 | > 100 | 47.8 | > 100 | > 100 | > 100 | 66.5 | > 100 | > 54.1 | > 100 | 33.5 | > 100 | > 42.7 | > 85.7 | > 100 | > 100 | 30.6 | > 100 | > 100 | > 100
12 | C[Se]C(=O)CC1=C2C=C(F)C=CC2/C(=C\c2ccc(S(C)=O)cc2)C1C (stereo not given) | 0.0336 | 0.26 | 0.432 | 3.04 | 0.392 | > 100 | < 0.0156 | 0.0465 | 0.223 | 0.767 | < 0.01 | 0.0242 | 0.036 | 0.179 | 0.0387 | 1.52 | < 0.0181 | 1.43 | 1.36 | > 100
13 | CC(=O)/C(C)=N/N/C(N)=N\S(=O)(=O)c1cc(C(=O)Nc2ccccc2)c(Cl)cc1SCc1ccccc1 | > 100 | > 100 | 43.5 | > 100 | 3.73 | 56.3 | 43.1 | > 100 | > 100 | > 100 | 40.4 | > 100 | 29.6 | > 100 | 1.08 | 3.95 | 27.7 | > 100 | 5.54 | > 100
14 | Cn1c(O)c(C(=O)Nc2ccc([N+](=O)[O-])cc2)c(=O)n(C)c1=S | – | 8.02 | – | 5.53 | – | > 100 | – | 4.86 | – | 10.1 | – | 10.7 | – | 12.8 | – | 22.9 | – | 7.67 | – | > 50.9
15 | C=C1C(C)C2C(Cc3ccccc3)NC(=O)C23C(OC(C)=O)/C=C/C(C)(O)CC(C)C/C=C/C3C1O (stereo not given) | – | > 100 | – | 76.5 | – | 77.2 | – | 33.2 | – | 20.7 | – | 41.2 | – | 1.1 | – | > 100 | – | 18.4 | – | > 100
16 | COc1ccc(/C=C(\C#N)c2cc3ccccc3n2C)cc1 | 0.336 | 3.19 | 0.471 | > 100 | 0.448 | > 40.3 | 0.355 | > 28.2 | 0.492 | > 100 | 2.52 | > 100 | 0.924 | > 100 | 0.308 | > 100 | 0.493 | > 100 | 0.178 | > 100
17 | O=C(/C=C/c1ccco1)Nc1ncc(Cc2ccc(F)cc2)s1 | 0.0336 | 0.141 | 0.115 | > 100 | 0.0825 | > 100 | 0.0709 | > 100 | 0.112 | > 100 | 0.201 | > 100 | 0.194 | > 100 | 0.036 | > 100 | 0.0615 | > 100 | 0.0385 | > 100
18 | Fc1ccccc1C1CC(C(c2ccccc2)c2ccccc2)=Nc2ccccc2S1 (stereo not given) | – | 24.4 | – | 21.6 | – | 11 | – | 26.5 | – | 32.2 | – | 26.1 | – | 28.8 | – | 25.7 | – | 25.5 | – | 10.6
19 | CCCCCCCCCC(=O)CC(=O)c1c(O)cccc1O | – | 80.9 | – | 67 | – | > 100 | – | 98.2 | – | > 100 | – | > 100 | – | > 100 | – | 72.1 | – | 69.3 | – | 86
20 | CC1(C)OCN(c2ccc(Cl)cc2)Cn2c1nc1ccccc12 | – | > 100 | – | > 100 | – | > 100 | – | > 100 | – | > 100 | – | > 100 | – | 97.1 | – | > 100 | – | > 100 | – | > 100
21 | CCSC1=CC(=O)c2ccccc2C1=O | 1.46 | 2.81 | 6.48 | 15.9 | 0.744 | 2.39 | 15.3 | 30.7 | 16.8 | 40.6 | 4.98 | 17.1 | 1.28 | 4.06 | 12.8 | 26 | 5.81 | 16.5 | 1.61 | 4.52
22 | O=c1cccccc1NCCCCNc1cccccc1=O | – | > 100 | – | > 100 | – | > 100 | – | > 100 | – | > 100 | – | > 100 | – | > 100 | – | > 100 | – | > 100 | – | > 100
23 | CC(=O)OC1CCC2(C)C(=CC(C3C=C4CC(OC(C)=O)CCC4(C)C4=C3C3CC5OC6(CCC(C)CO6)C(C)C5C3(C)CC4)C3=C2CCC2(C)C3CC3OC4(CCC(C)CO4)C(C)C32)C1 (stereo not given) | – | 28.6 | – | 33.9 | – | 4.7 | – | 26.5 | – | 30.4 | – | 23.5 | – | 28.9 | – | 26.9 | – | 27.8 | – | 15.2
24 | CC(C)(C)CC(C)(C)c1ccc(OCCOCCSC(=N)N)cc1 | 2.05 | 4.48 | 2.02 | 3.49 | 2.35 | 6.17 | 1.72 | 3.27 | 2.17 | 5.58 | 3.58 | 12.5 | 1.75 | 3.91 | 1.8 | 3.39 | 1.65 | 3.04 | 1.51 | 3.58
